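96-well plates; 48 h exposure; 5 concentrations. Endpoints by linear interpolation between flanking doses. Not reached: highest tested concentration assigned. GI50: concentration for 50% inhibition of growth.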 Calls of active or inactive are those of the source. Cut-off read from the data, not from the text of the source: active = GI50 up to about 1.1 µM and inactive = higher. Square brackets hold non-standard residues; d marks the D form. Peptide text beside a SMILES is read from it. ξ: configuration not given here. ξ2Thi = NC(Cc1cccs1)C(=O)O; ξR = N=C(N)NCCCC(N)C(=O)O; ξI = CCC(C)C(N)C(=O)O; ξL = CC(C)CC(N)C(=O)O; ξK = NCCCCC(N)C(=O)O; ξT = CC(O)C(N)C(=O)O; ξA = CC(N)C(=O)O
Assays:
Assay in all cases: NCI tumour cell line growth inhibition, 48 h
[1] = system: MDA-N
[2] = system: UACC-257
[3] = system: UACC-62
[4] = system: A498
[5] = system: T47D
[6] = system: BT-549
[7] = system: SK-MEL-5
[8] = system: HCT-116
[9] = system: MCF7
[10] = system: LOX IMVI
[11] = system: SN12C
[12] = system: MDA-MB-231
[13] = system: A549
[14] = system: SK-MEL-28
[15] = system: IGROV-1
[16] = system: DU-145
[17] = system: OVCAR-3
[18] = system: SK-MEL-2
[19] = system: NCI-H522
[20] = system: SF-295
[21] = system: HOP-62
[22] = system: NCI-H23
[23] = system: Malme-3M
[24] = system: M14
[25] = system: SW-620
[26] = system: ACHN
[27] = system: UO-31
[28] = system: MDA-MB-435
[29] = system: OVCAR-4
[30] = system: SF-539
[31] = system: SR
[32] = system: COLO 205
[33] = system: CCRF-CEM
[34] = system: SF-268
[35] = system: HOP-92
[36] = system: KM12
[37] = system: PC-3
[38] = system: U-251
[39] = system: NCI-H226
[40] = system: OVCAR-5
[41] = system: HCC 2998
[42] = system: TK-10
[43] = system: HL-60
[44] = system: Hs-578T
[45] = system: NCI/ADR-RES
[46] = system: RXF 393
[47] = system: SNB-19
[48] = system: 786-0
[49] = system: HCT-15
[50] = system: SK-OV-3
[51] = system: OVCAR-8
[52] = system: EKVX
[53] = system: RPMI-8226
[54] = system: CAKI-1
[55] = system: NCI-H460
[56] = system: MOLT-4
[57] = system: HT-29
[58] = system: K562
[59] = system: SNB-75

With `O=C1OC(=O)C(=C\c2ccc3c(c2)OCO3)/C1=C/c1ccc2c(c1)OCO2` the GI50 [1] was > 100 µM (inactive), the GI50 [2] was > 100 µM (inactive) and the GI50 [3] was > 72.1 µM (inactive). For the same compound, the GI50 [4] was > 100 µM (inactive), the GI50 [5] was > 100 µM (inactive) and the GI50 [6] was > 100 µM (inactive). The GI50 [7] was > 100 µM (inactive), the GI50 [8] was > 100 µM (inactive) and the GI50 [9] was > 100 µM (inactive). For the same compound, the GI50 [10] was > 100 µM (inactive), the GI50 [11] was > 100 µM (inactive) and the GI50 [12] was > 100 µM (inactive). The GI50 [13] was 37.9 µM (inactive), the GI50 [14] was > 100 µM (inactive) and the GI50 [15] was > 100 µM (inactive). For the same compound, the GI50 [16] was > 100 µM (inactive), the GI50 [17] was > 100 µM (inactive) and the GI50 [18] was > 100 µM (inactive). For the same compound, the GI50 [19] was 36.1 µM (inactive), the GI50 [20] was > 100 µM (inactive) and the GI50 [21] was > 100 µM (inactive). The GI50 [22] was > 80.9 µM (inactive), the GI50 [23] was > 100 µM (inactive) and the GI50 [24] was > 100 µM (inactive). The GI50 [25] was > 100 µM (inactive), the GI50 [26] was > 100 µM (inactive) and the GI50 [27] was > 100 µM (inactive). The GI50 [28] was > 100 µM (inactive), the GI50 [29] was > 100 µM (inactive) and the GI50 [30] was > 100 µM (inactive). For the same compound, the GI50 [31] was > 52.8 µM (inactive), the GI50 [32] was > 100 µM (inactive) and the GI50 [33] was 25.9 µM (inactive). For the same compound, the GI50 [34] was > 100 µM (inactive), the GI50 [35] was > 100 µM (inactive) and the GI50 [36] was > 100 µM (inactive). The GI50 [37] was > 100 µM (inactive), the GI50 [38] was > 80.7 µM (inactive) and the GI50 [39] was > 93.5 µM (inactive). For the same compound, the GI50 [40] was > 100 µM (inactive), the GI50 [41] was > 100 µM (inactive) and the GI50 [42] was > 100 µM (inactive). The GI50 [43] was 44.8 µM (inactive), the GI50 [44] was > 88.5 µM (inactive) and the GI50 [45] was > 100 µM (inactive). For the same compound, the GI50 [46] was > 89.1 µM (inactive), the GI50 [47] was > 100 µM (inactive) and the GI50 [48] was > 100 µM (inactive). For the same compound, the GI50 [49] was > 100 µM, the GI50 [50] was > 100 µM (inactive) and the GI50 [51] was > 84.5 µM (inactive). For the same compound, the GI50 [52] was > 100 µM (inactive), the GI50 [53] was > 55.6 µM (inactive) and the GI50 [54] was > 100 µM (inactive). For the same compound, the GI50 [55] was > 100 µM (inactive), the GI50 [56] was 37.8 µM (inactive) and the GI50 [57] was > 100 µM (inactive). The GI50 [58] was > 79.8 µM (inactive).

With `CCC(C)C(NC(=O)C(Cc1cccs1)NC(=O)C(CC(C)C)NC(=O)C(CC(C)C)NC(=O)C(CCCCN)NC(=O)C(CCCN=C(N)N)NC(=O)[C@H](Cc1ccc(O)cc1)NC(=O)C(NC(=O)C(C)NC(=O)C(N)CC(C)C)C(C)O)C(=O)NC(CC(C)C)C(N)=O` (stereo not given in full) (H-[ξL][ξA][ξT]Y[ξR][ξK][ξL][ξL][ξ2Thi][ξI][ξL]-NH2) the GI50 [1] was > 50 µM (inactive), the GI50 [59] was > 50 µM (inactive) and the GI50 [2] was > 50 µM (inactive). The GI50 [3] was > 50 µM (inactive), the GI50 [4] was > 50 µM (inactive) and the GI50 [5] was > 50 µM (inactive). The GI50 [6] was > 50 µM (inactive), the GI50 [7] was > 50 µM (inactive) and the GI50 [8] was > 50 µM (inactive). For the same compound, the GI50 [9] was > 50 µM (inactive), the GI50 [10] was > 50 µM (inactive) and the GI50 [11] was > 50 µM (inactive). The GI50 [12] was > 50 µM (inactive), the GI50 [13] was > 50 µM (inactive) and the GI50 [14] was > 50 µM (inactive). The GI50 [16] was > 50 µM (inactive), the GI50 [17] was > 50 µM (inactive) and the GI50 [19] was > 50 µM (inactive). The GI50 [20] was > 50 µM (inactive), the GI50 [21] was > 50 µM (inactive) and the GI50 [22] was > 50 µM (inactive). The GI50 [23] was > 50 µM (inactive), the GI50 [24] was > 50 µM (inactive) and the GI50 [25] was > 50 µM (inactive). For the same compound, the GI50 [26] was > 50 µM (inactive), the GI50 [27] was > 50 µM (inactive) and the GI50 [28] was > 50 µM (inactive). For the same compound, the GI50 [29] was > 50 µM (inactive), the GI50 [30] was > 50 µM (inactive) and the GI50 [31] was > 50 µM (inactive). The GI50 [32] was > 50 µM (inactive), the GI50 [33] was > 50 µM (inactive) and the GI50 [34] was > 50 µM (inactive). The GI50 [36] was > 50 µM (inactive), the GI50 [37] was > 50 µM (inactive) and the GI50 [38] was > 50 µM (inactive). The GI50 [39] was > 50 µM (inactive), the GI50 [40] was > 50 µM (inactive) and the GI50 [41] was > 50 µM (inactive). For the same compound, the GI50 [42] was > 50 µM (inactive), the GI50 [44] was > 50 µM (inactive) and the GI50 [45] was > 50 µM (inactive). For the same compound, the GI50 [46] was > 50 µM (inactive), the GI50 [47] was > 50 µM (inactive) and the GI50 [48] was > 50 µM (inactive). The GI50 [49] was > 50 µM, the GI50 [50] was > 50 µM (inactive) and the GI50 [51] was > 50 µM (inactive). The GI50 [52] was > 50 µM (inactive), the GI50 [53] was > 50 µM (inactive) and the GI50 [54] was > 50 µM (inactive). For the same compound, the GI50 [55] was > 50 µM (inactive), the GI50 [56] was > 50 µM (inactive) and the GI50 [57] was > 50 µM (inactive). The GI50 [58] was > 50 µM (inactive).

In the case of `NC(=O)NC(=O)c1cccc(NC(=O)CBr)c1`, the GI50 [1] is reported as < 0.0134 µM (active), the GI50 [2] is reported as < 0.0311 µM (active) and the GI50 [3] is reported as < 0.0175 µM (active). For the same compound, the GI50 [4] was 0.102 µM (active), the GI50 [5] was 1.42 µM (inactive) and the GI50 [6] was < 0.02 µM (active). For the same compound, the GI50 [7] was < 0.0119 µM (active), the GI50 [8] was < 0.01 µM (active) and the GI50 [9] was < 0.01 µM (active). For the same compound, the GI50 [10] was < 0.01 µM (active), the GI50 [11] was < 0.0206 µM (active) and the GI50 [12] was 0.0631 µM (active). The GI50 [13] was 0.912 µM (active), the GI50 [14] was 1.44 µM (inactive) and the GI50 [15] was 0.0266 µM (active). For the same compound, the GI50 [16] was < 0.022 µM (active), the GI50 [17] was < 0.01 µM (active) and the GI50 [18] was 0.0286 µM (active). The GI50 [19] was < 0.01 µM (active), the GI50 [20] was 0.197 µM (active) and the GI50 [21] was 0.0577 µM (active). For the same compound, the GI50 [22] was < 0.0195 µM (active), the GI50 [24] was 0.198 µM (active) and the GI50 [25] was < 0.01 µM (active). The GI50 [26] was < 0.0209 µM (active), the GI50 [27] was 0.209 µM (active) and the GI50 [28] was < 0.0143 µM (active). For the same compound, the GI50 [29] was 0.0706 µM (active), the GI50 [30] was < 0.0362 µM (active) and the GI50 [31] was < 0.01 µM (active). For the same compound, the GI50 [32] was < 0.01 µM (active), the GI50 [33] was < 0.01 µM (active) and the GI50 [34] was < 0.0158 µM (active). The GI50 [35] was < 0.0216 µM (active), the GI50 [36] was 0.0216 µM (active) and the GI50 [37] was < 0.0182 µM (active). For the same compound, the GI50 [38] was < 0.018 µM (active), the GI50 [39] was < 0.0188 µM (active) and the GI50 [40] was < 0.0204 µM (active). For the same compound, the GI50 [41] was 0.282 µM (active), the GI50 [42] was < 0.0231 µM (active) and the GI50 [43] was < 0.01 µM (active). For the same compound, the GI50 [44] was < 0.0206 µM (active), the GI50 [45] was < 0.0171 µM (active) and the GI50 [46] was < 0.019 µM (active). The GI50 [47] was 0.515 µM (active), the GI50 [48] was < 0.01 µM (active) and the GI50 [49] was < 0.0161 µM. For the same compound, the GI50 [50] was 0.0272 µM (active), the GI50 [51] was < 0.0172 µM (active) and the GI50 [52] was 0.766 µM (active). For the same compound, the GI50 [53] was < 0.0141 µM (active), the GI50 [54] was < 0.01 µM (active) and the GI50 [55] was < 0.0509 µM (active). For the same compound, the GI50 [56] was < 0.01 µM (active), the GI50 [57] was < 0.0168 µM (active) and the GI50 [58] was < 0.01 µM (active).
